Source: the supplement of paper PMC10307832

Assays:
Assay in all cases: relative viability (nuclei count vs DMSO), 5 days (fraction); higher = more cells survive
[1] = compound: CC(O)(CS(=O)(=O)c1ccc(F)cc1)C(=O)Nc1ccc(C#N)c(C(F)(F)F)c1 [Bicalutamide] + O=C(CCCCCCC(=O)Nc1ccccc1)NO [Vorinostat] (partner 1 µM)
Summary of the method: (§1)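 The day after seeding in 1536-well plates, lung cancer cell lines were treated by pin tool with a single drug, or with a fixed anchor-drug dose together with five library-drug doses (not always all listed) in √10 steps. After 5 days, a combined fix-and-stain solution (final 0.05% Triton X-100, 1% formaldehyde, 1 ug/ml Hoechst) was added. Nuclei counted on 4× images gave relative viability as treated counts over vehicle counts, reported as the median of duplicate plates.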

Bromopyruvate + Olaparib = compound: C(C(=O)C(=O)O)Br [Bromopyruvate] + O=C(c1cc(Cc2n[nH]c(=O)c3ccccc23)ccc1F)N1CCN(C(=O)C2CC2)CC1 [Olaparib] (partner 8 µM)
Summary of the method: as §1

[2] = compound: C(C(=O)C(=O)O)Br [Bromopyruvate] + Nc1nc2[nH]cc(CCc3ccc(C(=O)N[C@@H](CCC(=O)O)C(=O)O)cc3)c2c(=O)[nH]1 [Pemetrexed] (partner 0.2 µM)
Summary of the method: as §1

[3] = compound: CC(O)(CS(=O)(=O)c1ccc(F)cc1)C(=O)Nc1ccc(C#N)c(C(F)(F)F)c1 [Bicalutamide] + CS(=O)(=O)N1CCN(Cc2cc3nc(-c4cccc5[nH]ncc45)nc(N4CCOCC4)c3s2)CC1 [Pictilisib] (partner 1 µM)
Summary of the method: as §1

Cell Line	relative viability ([1]; first compound 0.08 µM)	relative viability ([1]; first compound 0.253 µM)	relative viability ([1]; first compound 0.8 µM)	relative viability ([1]; first compound 2.53 µM)	relative viability (Bromopyruvate + Olaparib; first compound 1 µM)	relative viability (Bromopyruvate + Olaparib; first compound 3.162 µM)	relative viability (Bromopyruvate + Olaparib; first compound 10 µM)	relative viability (Bromopyruvate + Olaparib; first compound 31.62 µM)	relative viability (Bromopyruvate + Olaparib; first compound 100 µM)	relative viability ([2]; first compound 1 µM)	relative viability ([2]; first compound 3.162 µM)	relative viability ([2]; first compound 10 µM)	relative viability ([2]; first compound 31.62 µM)	relative viability ([2]; first compound 100 µM)	relative viability ([3]; first compound 0.08 µM)	relative viability ([3]; first compound 0.253 µM)	relative viability ([3]; first compound 0.8 µM)	relative viability ([3]; first compound 2.53 µM)
NCI-H358	0.804	0.604	0.662	0.544	0.591	0.687	0.628	0.565	0.535	0.147	0.145	0.164	0.17	0.183	0.385	0.361	0.301	0.303
NCI-H441	0.924	0.755	0.778	0.751	0.604	0.538	0.643	0.564	0.602	0.255	0.282	0.299	0.274	0.271	0.594		0.513	0.426
NCI-H460	0.763	0.439	0.92	0.779	0.457	0.404	0.469	0.397	0.462	0.0598	0.078	0.0595	0.0647	0.0655	0.343	0.335	0.478	0.356
NCI-H520	0.831	0.728	0.881	0.596	0.37	0.32	0.367	0.302	0.264	0.64	0.713	0.691	0.598	0.629	0.516	0.254	0.281	0.335
NCI-H596	0.679	0.571	0.66	0.648	0.755	0.645	0.671	0.754	0.782	0.546	0.522	0.55	0.48	0.59	0.409	0.623	0.404	0.475
NCI-H647	0.474	0.655	0.575	0.435	0.567	0.541	0.494	0.585	0.532	0.17	0.162	0.156	0.184	0.177	0.358	0.348	0.643	0.339
NCI-H650	0.449	0.518	0.513	0.367	0.324	0.378	0.379	0.278	0.206	0.971	0.924	0.81	0.989	0.941	0.726	0.671	0.951	0.768
